The values that follow come from patent publication US7449495B2, “Retinoid derivatives with antiangiogenic, antitumoral and proapoptotic activities” (Sigma-Tau Industrie Farmaceutiche Riunite S.p.A., priority 2001, dated 2008).

Data set [1] has as its system multidrug-resistant human ovarian carcinoma A2780/Dx. Nature of the data set: Antitumoral activity in human ovarian carcinoma model A2780/Dx. To be noted: qdx5x3w. It counts as in vivo, CD1 nu/nu mice. The method, then:
The human ovarian carcinoma cells A2780, A2780/Dx and NCIH460 were maintained in RPMI-1640 containing 10% FCS, 2 mM glutamine, 50 μg/ml gentamicin, at 37° C. in a humidified atmosphere containing 5% CO2. The cells were trypsinised, collected in complete medium, centrifuged at approx. 1100 rpm for 10 minutes and the precipitate resuspended in Hank's 199 Medium; this operation was carried out twice. The cells were resuspended in Hank's 199 Medium at a density of 20×10^6/ml and 0.1 ml (equal to 2×10^6 cells/mouse) were injected s.c. into the right flank of CD1 nu/nu 6 week-old, female mice.
The ST1926 solution was prepared immediately before use and solubilised in cremophor:ethanol 1:1 and subsequently diluted 1:4 in buffered saline solution. The animal treatments were administered in a volume of 10 ml/kg. The treatment protocol for ST1926 at different doses was for 5 consecutive days (qd×5), beginning one day following tumor cell inoculation and repeated for 3 cycles. Measurements of tumor dimensions were performed using a digital calliper (Vernier Caliper) twice weekly, from the time in which the mass was measurable. The tumor mass was evaluated from the size of the two principal dimensions (length and breadth), expressed in mm, applying the formula (length×breadth^2)/2, that is, the tumor volume in mm3. For each experimental group, the percentage of tumor volume inhibition was calculated (TVI %), with respect to the control, namely (100−(T/C %). TVI was evaluated 2 days after the final administration of ST1926.
The mice were measured until the control group tumors had reached a weight of 2 g, then the mice were sacrificed by cervical dislocation.
A comparison between the TVI values obtained for each group was performed using the non parametric Mann Whitney test for non-paired data, using the Instat software from GraphPad inc.
The mice were weighed prior to each treatment, firstly, so as to be able to administer the correct quantity of substance based on the possible changes in weight observed throughout the course of administration of the drug, and also to record the maximum weight loss throughout the treatment (BWL % max).

Data set [2] deals with ornithine decarboxylase in mouse epidermis. To be noted: in vivo; cited from earlier work.
Data set [3] deals with M109 murine lung carcinoma cells. Nature of the data set: Cytotoxicity in combination with TRAIL, M109. The data set is classed as cell-based. To be noted: M109, 72 hours, value >1 synergism (FIG. 2). The method, then:
FIG. 2 is a graph showing the interaction between ST1926 and TRAIL in M109 murine lung carcinoma cells at different concentrations of TRAIL.
A study of cytotoxicity of ST1926 in combination with TRAIL was performed in two different tumor cell lines such as M109 murine lung carcinoma and A2780/Dx multidrug-resistant human ovarian carcinoma. Cells were maintained in RPMI 1640 medium containing 10% FCS, 1% sodium pyruvate and 1% glutamine.
The cells were seeded in a volume of 250 μl in 96 well plates and incubated for 24 hours at 37° C. The following day, test compound ST 1926 [(2E)-3-[3′-(1-Adamantyl)-4′-hydroxy[1,1′-biphenyl]-4-yl]-2-propenoate/ic acid] or TRAIL were added at increasing concentrations, and the cells were incubated for a further 72 hours at 37° C. in a humidified atmosphere containing 5% CO2. On the 5th day, the supernatant was removed by upturning the plates. 200 μl of PBS and 50 μl of cold, 80% TCA were added. The plates were then left to incubate on ice for at least 1 hour. The TCA was removed by upturning; the plates were washed three times by immersion in distilled water and dried first on paper, then with a jet of hot air. […] The optical density was measured using a Multiskan spectrophotometer at 540 nm.
The interaction between ST1926 and TRAIL was determined by using the analysis of Drewinko et al. (Cancer Biochem. Biophys. 1: 187-195, 1976). […]

Turning to `O=C(O)/C=C/c1ccc(-c2ccc(O)c(C34CC5CC(CC(C5)C3)C4)c2)cc1` [ST1926, E-4-(3-(1-adamantyl)-4-hydroxyphenyl)cinnamic acid], in data set [1] (10 mg/kg po), the “BWL % Max” value was 0%, the Lethality is on record as 0/8 and the “TVI % ± SE” value is on record as “*34 ± 3%”. In data set [1] (15 mg/kg po), the “BWL % Max” value stood at 6%, the Lethality was 0/8 and the “TVI % ± SE” value is on record as “*54 ± 9%”. For the same compound, the “activity in the ODC assay compared with compound 1 (in words)” value in data set [2] is reported as “lower activities”. Moreover, the “interaction between ST1926 and TRAIL (analysis of Drewinko et al.)” value in data set [3] is “synergic activity”.
